Experimental data reported in patent US12491188B2, “Small molecule PARG inhibitors and methods of use thereof” (Board of Regents, The University of Texas System, priority 2019, dated 2025).

What was measured:
[1] = system: PC3 cells; experiment: PAR / γH2AX immuno-staining and high content imaging after IR; format: cell-based, human; settings: PC3, 2 h treatment, 7 Gy, 1 h recovery
Description: FIGS. 13a-g show PARGi sensitizes cells to ionizing radiation damage. (FIG. 13a) A low-resolution fixed intensity image-montage of the total cell numbers 3×(3×3) imaged per experimental group. A high level of PAR accumulation and γH2AX foci formation in cells exposed to PARGi. PC3 cells treated DMSO or PARG inhibitors (2120 or 2131) for 2 hours, irradiated 7Gy, recovered for 1 hour were fixed and immuno-stained with Poly(ADP)-Ribose (PAR, green), γH2AX (red) and Hoechst (blue) antibodies. Cells were analyzed with quantitative high content imaging. (FIGS. 13b-e) Quantitative analysis of PAR intensity (FIG. 13b), γH2AX intensities (FIG. 13c), the number of cells showing PAR/γH2AX co-localizations (FIG. 13d) and nucleus count for the total number of cells analyzed for each group (FIG. 13e). […] Cells were treated with 2131 for an hour followed by 7Gy ionizing radiation then allowed to recover for 2 h before total cell-lysate preparation and immunoblotting with anti-PAR (upper panel) followed by anti-PARG (middle) and Anti-PCNA (lower) as controls. […] Anti-PAR (green), Anti-γH2AX (red) and Hoechst 33342 (blue). Scale bar 25 μm.
Immuno-staining and imaging. PC3 cells were grown to 75% confluence in 24-well 25 μm film bottom Eppendorf black cell Imaging plates (0030741005), treated with either DMSO or designated inhibitors for 2 hours, irradiated 7 Gy X-ray and allowed to recover for an hour before fixing with 4% (wt/vol) paraformaldehyde, pH 8.0. All subsequent steps were performed at pH8.0. Cells were washed 6-7 times with PBS, permeabilized 0.5% Triton X-100 in PBS on ice for 20 min, blocked overnight with PBS/5% Goat serum/3% BSA/0.5% Triton X-100. Cells were incubated with primary antibody 1:250 dilution in PBS/5% BSA/0.5% Triton X-100 overnight at 4° C. Following 6× wash with PBS pH 8.0, cells were exposed to fluorescence labelled secondary antibody diluted 1:500 in PBS/5% BSA/0.5% Triton X-100 for 1 hour at room temperature. Following 6-7× PBS washes, cells were fixed again with 4% PFA at room temperature for 20 min. […]

[2] = target: human PARG (Homo sapiens (Human), UniProt Q86W56); experiment: Gel-based PARG activity assay; format: biochemical
Description: FIGS. 9a & 9b show structure-activity relationships (SAR) of compounds from five main chemotypes. (FIG. 9a) A total of 34 representative HTS hits and commercially available analogues from each chemotype (FIG. 7 and FIG. 29) were analyzed using the gel-based PARG activity assay. This gel-based assay directly monitors the change of PARylation status of PARP1 as a substrate of PARG. […] The reaction was quenched after a 30 min incubation at room temperature by adding SDS-PAGE sample buffer. PARylated PARP1C runs as a smear on SDS-PAGE that is reduced to a single band by PARG treatment. […] (FIG. 9b) Quantification of the dose-response PARG inhibition by JA2-3 using the gel-based PARG activity assay. hPARG (1 nM) was preincubated with increasing concentrations (0.032-1 μM) of JA2-3 for 1 hr at room temperature before PARylated PARP1C (500 nM) was added. The reaction was quenched after a 30 min incubation at room temperature. PARylated PARP1C migrates slower than unmodified PARP1C and was quantified using ImageJ. To determine the IC50 value, the dose-response data were plotted as a function of JA2-3 concentration and fitted to the four-parameter logistic equation using SigmaPlot. The rate of the PARG-dependent signal loss in the TR-FRET PAR turnover assay is not equivalent to the steady-state rate of PAR turnover, because the TR-FRET assay can't detect signal loss until the length of PAR chains become shorter than 7 ADP-ribose units. Therefore, the gel-based PARG activity assay to accurately determine the IC50 values throughout the present disclosure.
Gel-based PARG activity assay. PARP1C (2 μM) is enzymatically auto-modified in a reaction containing the PARP1 DBD (2 μM), a 24 mer nicked DNA oligo (2 μM), and NAD+(300 μM) for 1 hr at 37° C., as described previously (Kim et al., 2012). Human PARG^389-976 (1 nM) was pre-incubated with compounds for 1 hr at room temperature. The reaction was initiated by addition of PARylated PARP1 (final concentration of 500 nM) and quenched after 30 min incubation at room temperature by adding SDS-PAGE sample buffer. The gel was visualized by sypro-ruby staining (Kim et al., 2012) and the retained PARylated PARP1C species were quantified using ImageJ (Schneider et al., 2012).
PARylated PARP1C that migrates slower than unmodified PARP1C was quantified. […] The IC50 values were determined by fitting the dose-response data for each compound to a four-parameter logistic equation using SigmaPlot (Systat Software Inc.).
To test specificity of JA2131, human PARG^389-976 (1 nM) was pre-incubated with JA2131 (5, 10, and 20 μM) in the presence and absence of 0.1% Triton-X 100 or 0.1 mg/ml BSA for 1 hr at room temperature. The reaction was initiated, quenched, visualized, and quantified as described above.

[3] = target: PARG proteins in PC3 cells (Homo sapiens (Human), UniProt Q86W56); experiment: Cellular thermal shift assay (CETSA), PARG; format: cell-based; settings: 10 μM, 2 h
Description: PC3 cells treated with 10 μM JA2131 or DMSO were temperature shocked as described in the Examples and the resulting non-aggregated proteins were analyzed with Anti-PARG or Anti-PCNA antibody. Anti-Histone H3 was used as loading control.
Cellular thermal shift assay (CETSA). CETSA was performed as described in Molina et al., 2013. Briefly, PC3 cells were treated with 10 μM JA2131 or an equivalent volume of DMSO for 2 h, washed three times with PBS and extracted for total cell lysate. 10% glycerol was added to the samples before subjecting to heat. Gradient thermal cycler (C1000 Touch, Bio-Rad) was used to heat samples at 42, 57, 66, 72, 77 and 85° C. for 3 min and chilled on ice for 5 min. Then, samples were centrifuged at 14,000 rpm for 20 min at 4° C. Supernatants were carefully removed and analyzed by Western blotting analysis.

Chain of human PARG (Q86W56 389-976): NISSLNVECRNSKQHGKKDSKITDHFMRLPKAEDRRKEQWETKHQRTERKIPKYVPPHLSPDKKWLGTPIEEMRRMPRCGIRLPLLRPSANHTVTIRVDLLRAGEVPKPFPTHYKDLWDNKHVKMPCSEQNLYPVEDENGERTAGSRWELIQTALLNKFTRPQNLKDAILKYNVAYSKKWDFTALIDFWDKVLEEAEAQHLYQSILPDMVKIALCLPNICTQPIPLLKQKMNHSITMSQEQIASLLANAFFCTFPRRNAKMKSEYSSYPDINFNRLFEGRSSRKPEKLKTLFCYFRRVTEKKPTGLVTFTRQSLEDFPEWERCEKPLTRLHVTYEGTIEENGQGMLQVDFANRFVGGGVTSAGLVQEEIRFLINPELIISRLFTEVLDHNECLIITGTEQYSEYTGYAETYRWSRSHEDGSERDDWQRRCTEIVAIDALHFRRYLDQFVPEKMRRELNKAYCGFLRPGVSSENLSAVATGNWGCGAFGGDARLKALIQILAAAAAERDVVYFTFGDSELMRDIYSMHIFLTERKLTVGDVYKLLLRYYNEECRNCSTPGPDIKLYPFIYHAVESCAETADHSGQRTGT
Chain of PARG proteins in PC3 cells (Q86W56 whole entry): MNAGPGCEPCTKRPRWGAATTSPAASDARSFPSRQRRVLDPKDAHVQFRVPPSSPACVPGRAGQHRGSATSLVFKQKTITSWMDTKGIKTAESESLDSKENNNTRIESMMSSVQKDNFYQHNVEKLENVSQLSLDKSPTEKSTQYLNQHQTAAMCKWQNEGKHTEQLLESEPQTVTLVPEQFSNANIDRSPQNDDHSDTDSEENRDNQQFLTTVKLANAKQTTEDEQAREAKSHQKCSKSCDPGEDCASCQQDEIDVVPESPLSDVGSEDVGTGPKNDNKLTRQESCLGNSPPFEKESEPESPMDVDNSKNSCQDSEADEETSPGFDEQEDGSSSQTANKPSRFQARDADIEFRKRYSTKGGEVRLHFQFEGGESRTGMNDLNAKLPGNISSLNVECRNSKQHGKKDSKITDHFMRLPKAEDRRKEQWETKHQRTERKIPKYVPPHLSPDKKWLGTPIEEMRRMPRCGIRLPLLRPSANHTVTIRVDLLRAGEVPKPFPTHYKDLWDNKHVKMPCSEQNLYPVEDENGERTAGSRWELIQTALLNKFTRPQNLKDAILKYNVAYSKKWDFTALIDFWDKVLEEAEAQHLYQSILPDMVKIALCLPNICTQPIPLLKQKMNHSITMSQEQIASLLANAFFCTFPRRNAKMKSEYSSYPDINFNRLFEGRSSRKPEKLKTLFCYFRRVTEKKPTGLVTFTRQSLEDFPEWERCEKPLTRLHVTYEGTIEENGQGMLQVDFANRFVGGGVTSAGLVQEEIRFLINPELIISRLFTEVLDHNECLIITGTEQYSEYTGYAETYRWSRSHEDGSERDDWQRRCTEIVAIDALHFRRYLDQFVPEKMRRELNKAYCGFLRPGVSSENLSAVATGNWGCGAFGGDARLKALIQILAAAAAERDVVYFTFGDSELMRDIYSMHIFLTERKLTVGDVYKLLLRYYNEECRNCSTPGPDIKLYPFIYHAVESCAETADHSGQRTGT

Structure (SMILES): O=C1C(Cl)=C(Cl)C(Cl)(Cl)C(Cl)=C1Cl [JA2131]
- cells showing colocalization of PAR and γH2AX foci [1]: at least 50%
- increase in PAR accumulation following IR in comparison to untreated cells [1]: 20 fold
- γH2AX staining and foci formation, PARGi-treated vs control cells [1]: > 10 fold
- effect of detergent or non-specific protein on PARG inhibitory potency ([2]; 0.1% Triton-X 100 or 0.1 mg/ml BSA, JA2131 5, 10, 20 μM): Neither the addition of Triton-X 100 nor BSA significantly altered the inhibitory potency
- IC50 of PARG inhibition ([2]; hPARG 1 nM, PARylated PARP1C 500 nM): sub-micromolar
- IC50 ([2]; hPARG 1 nM, PARylated PARP1C 500 nM, read-out: IC50 of PARG inhibition): 400 nM
- increase in potency of JA2131 (6′-thiocarbonyl) in comparison to JA2120 (6′-carbonyl) ([2]; ratio of IC50 values): more than 50 fold
- thermal stabilization of PARG proteins in cells [3]: 9 °C
